{"source": "ChEMBL document CHEMBL3132769", "about": "“Fragment growing to retain or alter the selectivity of anchored kinase hinge-binding fragments” (Medchemcomm, 2014)", "key": {"[1]": {"target": "T1, Serine/threonine-protein kinase BRSK1 (Homo sapiens) (UniProt Q8TDC3)", "T1 sequence (whole entry)": "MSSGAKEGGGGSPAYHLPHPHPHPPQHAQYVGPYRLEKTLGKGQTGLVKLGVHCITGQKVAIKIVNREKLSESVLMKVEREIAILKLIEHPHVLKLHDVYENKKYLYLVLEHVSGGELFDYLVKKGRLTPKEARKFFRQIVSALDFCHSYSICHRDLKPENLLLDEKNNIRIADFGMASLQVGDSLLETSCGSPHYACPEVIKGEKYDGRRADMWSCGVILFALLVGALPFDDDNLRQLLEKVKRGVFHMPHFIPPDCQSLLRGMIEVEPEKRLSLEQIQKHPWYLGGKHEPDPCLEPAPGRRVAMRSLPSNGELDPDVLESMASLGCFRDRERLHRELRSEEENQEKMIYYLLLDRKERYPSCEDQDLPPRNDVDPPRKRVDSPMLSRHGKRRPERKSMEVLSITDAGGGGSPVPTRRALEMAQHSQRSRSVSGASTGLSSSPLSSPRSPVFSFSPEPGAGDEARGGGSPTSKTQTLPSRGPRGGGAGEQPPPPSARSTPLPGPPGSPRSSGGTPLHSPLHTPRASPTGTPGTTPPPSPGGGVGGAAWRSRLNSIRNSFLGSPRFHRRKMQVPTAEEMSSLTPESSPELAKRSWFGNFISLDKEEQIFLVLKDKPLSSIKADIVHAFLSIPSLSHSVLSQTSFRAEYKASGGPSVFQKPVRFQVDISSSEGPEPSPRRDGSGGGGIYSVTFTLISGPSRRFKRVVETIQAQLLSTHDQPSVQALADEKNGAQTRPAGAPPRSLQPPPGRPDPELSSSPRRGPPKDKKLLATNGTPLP", "test": "Inhibition of human full length BRSK1 expressed in baculovirus assessed as substrate phosphorylation using fluorescence-labelled peptides as substrate at 8 uM after 90 mins by microfluidic peptide phosphorylation assay"}, "[2]": {"target": "Mitogen-activated protein kinase 14 (Homo sapiens) (UniProt Q16539)", "sequence (Q16539 whole entry, the tested form may be a part)": "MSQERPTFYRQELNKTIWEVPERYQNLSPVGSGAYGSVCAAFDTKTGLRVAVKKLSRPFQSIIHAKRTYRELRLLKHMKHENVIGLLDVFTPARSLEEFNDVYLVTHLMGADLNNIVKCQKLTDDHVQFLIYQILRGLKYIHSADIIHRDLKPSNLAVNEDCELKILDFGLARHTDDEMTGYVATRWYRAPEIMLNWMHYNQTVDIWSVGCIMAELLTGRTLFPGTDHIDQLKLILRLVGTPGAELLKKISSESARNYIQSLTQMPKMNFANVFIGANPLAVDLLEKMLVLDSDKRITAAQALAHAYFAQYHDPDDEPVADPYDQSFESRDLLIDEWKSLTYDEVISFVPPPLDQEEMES", "test": "Inhibition of human truncated p38 alpha expressed in Escherichia coli cell assessed as substrate phosphorylation using fluorescence-labelled peptides as substrate at 0.2 uM after 90 mins by microfluidic peptide phosphorylation assay"}, "[3]": {"target": "Tyrosine-protein kinase Fer (Homo sapiens) (UniProt P16591)", "sequence (P16591 whole entry, looked up, the tested form may be a part)": "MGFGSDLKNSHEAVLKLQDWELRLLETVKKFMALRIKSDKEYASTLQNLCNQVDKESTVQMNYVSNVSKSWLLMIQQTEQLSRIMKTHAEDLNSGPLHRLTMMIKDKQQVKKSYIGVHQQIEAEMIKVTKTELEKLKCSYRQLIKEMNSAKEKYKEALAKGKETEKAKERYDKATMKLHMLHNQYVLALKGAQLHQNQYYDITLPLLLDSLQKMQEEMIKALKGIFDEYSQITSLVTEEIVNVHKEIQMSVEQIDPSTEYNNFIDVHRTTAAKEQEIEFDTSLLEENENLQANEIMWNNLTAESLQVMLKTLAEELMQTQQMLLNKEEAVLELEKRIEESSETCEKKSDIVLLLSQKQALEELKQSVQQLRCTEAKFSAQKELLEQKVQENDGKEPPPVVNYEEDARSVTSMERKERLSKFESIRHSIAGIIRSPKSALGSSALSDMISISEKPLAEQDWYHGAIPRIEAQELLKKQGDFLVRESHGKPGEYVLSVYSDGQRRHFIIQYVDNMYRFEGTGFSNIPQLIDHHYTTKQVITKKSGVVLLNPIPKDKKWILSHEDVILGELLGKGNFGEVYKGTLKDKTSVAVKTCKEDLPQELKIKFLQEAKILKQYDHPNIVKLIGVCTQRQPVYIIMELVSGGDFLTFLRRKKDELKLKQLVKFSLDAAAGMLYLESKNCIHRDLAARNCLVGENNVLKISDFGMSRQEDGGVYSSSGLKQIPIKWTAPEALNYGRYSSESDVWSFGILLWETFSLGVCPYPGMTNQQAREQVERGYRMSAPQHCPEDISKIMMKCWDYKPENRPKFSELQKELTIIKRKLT", "test": "Inhibition of human FER catalytic domain expressed in baculovirus assessed as substrate phosphorylation using fluorescence-labelled peptides as substrate at 2 uM after 90 mins by microfluidic peptide phosphorylation assay"}, "[4]": {"target": "RAF proto-oncogene serine/threonine-protein kinase (Homo sapiens) (UniProt P04049)", "sequence (P04049 whole entry, the tested form may be a part)": "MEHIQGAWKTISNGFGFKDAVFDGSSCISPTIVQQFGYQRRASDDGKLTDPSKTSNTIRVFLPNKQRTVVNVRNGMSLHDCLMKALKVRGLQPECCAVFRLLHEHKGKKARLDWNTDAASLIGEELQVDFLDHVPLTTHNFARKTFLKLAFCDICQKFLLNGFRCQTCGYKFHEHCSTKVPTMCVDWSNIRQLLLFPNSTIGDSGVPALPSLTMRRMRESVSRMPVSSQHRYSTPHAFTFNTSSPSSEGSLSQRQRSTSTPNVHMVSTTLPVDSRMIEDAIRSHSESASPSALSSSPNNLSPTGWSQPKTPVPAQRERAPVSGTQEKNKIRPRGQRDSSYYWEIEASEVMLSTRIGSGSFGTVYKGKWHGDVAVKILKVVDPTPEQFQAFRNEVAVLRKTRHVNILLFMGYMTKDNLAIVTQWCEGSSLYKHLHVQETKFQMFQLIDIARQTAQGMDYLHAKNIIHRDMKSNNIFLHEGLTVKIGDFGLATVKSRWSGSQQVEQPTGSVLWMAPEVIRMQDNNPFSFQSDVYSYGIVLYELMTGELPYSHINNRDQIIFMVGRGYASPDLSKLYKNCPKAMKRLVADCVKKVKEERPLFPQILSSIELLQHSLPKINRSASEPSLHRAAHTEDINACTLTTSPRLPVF", "test": "Inhibition of human truncated c-Raf expressed in baculovirus assessed as substrate phosphorylation using fluorescence-labelled peptides as substrate at 2 uM after 90 mins by microfluidic peptide phosphorylation assay"}, "[5]": {"system": "Tyrosine-protein kinase ABL1 (Homo sapiens), P00519 [T315I]", "test": "Inhibition of human truncated ABL T315I mutant expressed in baculovirus assessed as substrate phosphorylation using fluorescence-labelled peptides as substrate at 2 uM after 90 mins by microfluidic peptide phosphorylation assay"}, "[6]": {"target": "Dual specificity tyrosine-phosphorylation-regulated kinase 1A (Rattus norvegicus) (UniProt Q63470)", "test": "Inhibition of rat full length DYRK1a expressed in Escherichia coli cell assessed as substrate phosphorylation using fluorescence-labelled peptides as substrate at 9 uM after 90 mins by microfluidic peptide phosphorylation assay"}, "[7]": {"target": "Serine/threonine-protein kinase MARK2 (Homo sapiens) (UniProt Q7KZI7)", "sequence (Q7KZI7 whole entry)": "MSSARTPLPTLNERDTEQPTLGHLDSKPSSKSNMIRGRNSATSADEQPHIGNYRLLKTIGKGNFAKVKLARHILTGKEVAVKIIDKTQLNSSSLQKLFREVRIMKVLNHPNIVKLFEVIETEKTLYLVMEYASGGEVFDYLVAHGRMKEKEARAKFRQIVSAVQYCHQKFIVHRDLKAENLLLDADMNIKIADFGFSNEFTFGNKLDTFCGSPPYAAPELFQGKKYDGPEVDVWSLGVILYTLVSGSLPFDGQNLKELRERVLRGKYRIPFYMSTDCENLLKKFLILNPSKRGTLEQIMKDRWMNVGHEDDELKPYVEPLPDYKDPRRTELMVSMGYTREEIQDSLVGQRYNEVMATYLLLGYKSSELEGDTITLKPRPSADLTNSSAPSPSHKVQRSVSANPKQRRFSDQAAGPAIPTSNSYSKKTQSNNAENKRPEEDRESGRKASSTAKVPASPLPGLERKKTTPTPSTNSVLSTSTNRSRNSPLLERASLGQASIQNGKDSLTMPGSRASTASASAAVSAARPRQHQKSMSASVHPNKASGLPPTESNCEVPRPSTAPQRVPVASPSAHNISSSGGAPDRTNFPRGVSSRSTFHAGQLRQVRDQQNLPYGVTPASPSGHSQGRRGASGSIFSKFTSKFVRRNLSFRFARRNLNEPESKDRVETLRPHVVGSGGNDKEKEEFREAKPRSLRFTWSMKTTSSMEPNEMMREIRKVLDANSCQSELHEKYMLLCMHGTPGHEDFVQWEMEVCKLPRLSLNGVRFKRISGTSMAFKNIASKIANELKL", "test": "Inhibition of human full length MARK2 expressed in baculovirus assessed as substrate phosphorylation using fluorescence-labelled peptides as substrate at 9 uM after 90 mins by microfluidic peptide phosphorylation assay"}, "[8]": {"target": "T1, Serine/threonine-protein kinase BRSK1 (Homo sapiens)", "test": "Inhibition of human full length BRSK1 expressed in baculovirus assessed as substrate phosphorylation using fluorescence-labelled peptides as substrate at 0.1 uM after 90 mins by microfluidic peptide phosphorylation assay"}, "[9]": {"target": "Tyrosine-protein kinase Fer (Homo sapiens) (UniProt P16591)", "test": "Inhibition of human FER catalytic domain expressed in baculovirus assessed as substrate phosphorylation using fluorescence-labelled peptides as substrate at 95 uM after 90 mins by microfluidic peptide phosphorylation assay"}, "[10]": {"target": "Tyrosine-protein kinase Fyn (Homo sapiens) (UniProt P06241)", "sequence (P06241 2-537 limits assumed)": "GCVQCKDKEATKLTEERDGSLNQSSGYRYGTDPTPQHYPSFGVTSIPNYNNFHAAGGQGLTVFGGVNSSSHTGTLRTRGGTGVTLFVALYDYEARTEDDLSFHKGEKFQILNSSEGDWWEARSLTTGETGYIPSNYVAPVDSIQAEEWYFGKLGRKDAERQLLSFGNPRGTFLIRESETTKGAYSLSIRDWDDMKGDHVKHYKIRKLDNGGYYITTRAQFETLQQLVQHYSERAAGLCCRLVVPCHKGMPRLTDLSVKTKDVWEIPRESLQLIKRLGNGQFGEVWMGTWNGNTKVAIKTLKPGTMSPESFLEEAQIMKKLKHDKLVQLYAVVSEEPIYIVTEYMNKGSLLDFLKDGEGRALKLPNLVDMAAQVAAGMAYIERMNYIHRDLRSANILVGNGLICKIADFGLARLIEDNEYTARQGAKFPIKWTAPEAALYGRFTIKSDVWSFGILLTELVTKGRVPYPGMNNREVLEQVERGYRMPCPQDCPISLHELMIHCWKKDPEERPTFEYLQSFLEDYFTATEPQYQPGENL", "test": "Inhibition of human full length FYN expressed in baculovirus assessed as substrate phosphorylation using fluorescence-labelled peptides as substrate at 95 uM after 90 mins by microfluidic peptide phosphorylation assay"}, "[11]": {"target": "Ribosomal protein S6 kinase alpha-5 (Homo sapiens) (UniProt O75582)", "sequence (O75582 whole entry, looked up)": "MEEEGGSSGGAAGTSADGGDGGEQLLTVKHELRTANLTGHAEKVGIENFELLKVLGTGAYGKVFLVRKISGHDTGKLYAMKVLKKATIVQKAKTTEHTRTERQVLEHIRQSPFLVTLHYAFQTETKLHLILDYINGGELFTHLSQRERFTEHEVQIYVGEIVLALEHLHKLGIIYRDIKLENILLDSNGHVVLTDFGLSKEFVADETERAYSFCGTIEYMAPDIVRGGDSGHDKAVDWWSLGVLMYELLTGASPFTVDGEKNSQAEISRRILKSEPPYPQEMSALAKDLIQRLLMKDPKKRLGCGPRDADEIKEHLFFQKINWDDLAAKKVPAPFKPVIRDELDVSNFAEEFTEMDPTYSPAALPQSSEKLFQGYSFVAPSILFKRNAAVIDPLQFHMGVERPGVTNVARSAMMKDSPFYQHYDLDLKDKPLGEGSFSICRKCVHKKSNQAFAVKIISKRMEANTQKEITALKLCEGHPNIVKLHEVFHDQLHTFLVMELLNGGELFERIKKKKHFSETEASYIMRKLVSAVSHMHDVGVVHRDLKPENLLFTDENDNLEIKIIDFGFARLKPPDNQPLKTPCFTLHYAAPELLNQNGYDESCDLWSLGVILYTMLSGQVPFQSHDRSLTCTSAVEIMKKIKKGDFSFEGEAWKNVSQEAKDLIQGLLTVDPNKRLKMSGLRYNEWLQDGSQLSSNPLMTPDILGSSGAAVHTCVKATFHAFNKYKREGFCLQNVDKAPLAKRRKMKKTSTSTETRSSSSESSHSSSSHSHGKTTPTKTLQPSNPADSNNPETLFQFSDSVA", "test": "Inhibition of human full length MSK1 expressed in baculovirus assessed as substrate phosphorylation using fluorescence-labelled peptides as substrate at 95 uM after 90 mins by microfluidic peptide phosphorylation assay"}, "[12]": {"target": "Protein kinase C gamma type (Homo sapiens) (UniProt P05129)", "test": "Inhibition of human truncated PKC gamma expressed in baculovirus assessed as substrate phosphorylation using fluorescence-labelled peptides as substrate at 1000 uM after 90 mins by microfluidic peptide phosphorylation assay"}, "[13]": {"target": "T2, Serine/threonine-protein kinase Sgk3 (Homo sapiens) (UniProt Q96BR1)", "T2 sequence (whole entry)": "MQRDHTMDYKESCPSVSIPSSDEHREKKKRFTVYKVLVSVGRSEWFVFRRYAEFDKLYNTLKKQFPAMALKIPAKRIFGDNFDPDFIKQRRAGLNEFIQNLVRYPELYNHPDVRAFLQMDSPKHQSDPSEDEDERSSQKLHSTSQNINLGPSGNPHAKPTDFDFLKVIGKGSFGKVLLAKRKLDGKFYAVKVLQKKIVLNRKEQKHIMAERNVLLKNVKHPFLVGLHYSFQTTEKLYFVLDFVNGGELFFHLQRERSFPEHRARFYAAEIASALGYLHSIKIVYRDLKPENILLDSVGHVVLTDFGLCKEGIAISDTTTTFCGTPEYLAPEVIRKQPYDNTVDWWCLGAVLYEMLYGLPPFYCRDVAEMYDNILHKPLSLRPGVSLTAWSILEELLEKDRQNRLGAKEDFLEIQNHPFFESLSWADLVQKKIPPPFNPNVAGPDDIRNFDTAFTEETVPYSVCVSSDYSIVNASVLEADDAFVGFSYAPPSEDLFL", "test": "Inhibition of human full length SGK3 expressed in baculovirus assessed as substrate phosphorylation using fluorescence-labelled peptides as substrate at 420 uM after 90 mins by microfluidic peptide phosphorylation assay"}, "[14]": {"target": "Ribosomal protein S6 kinase alpha-5 (Homo sapiens) (UniProt O75582)", "test": "Inhibition of human full length MSK1 expressed in baculovirus assessed as substrate phosphorylation using fluorescence-labelled peptides as substrate at 420 uM after 90 mins by microfluidic peptide phosphorylation assay"}, "[15]": {"target": "Ribosomal protein S6 kinase alpha-3 (Homo sapiens) (UniProt P51812)", "test": "Inhibition of human full length RSK2 expressed in baculovirus assessed as substrate phosphorylation using fluorescence-labelled peptides as substrate at 420 uM after 90 mins by microfluidic peptide phosphorylation assay"}}}
{"smiles": "NCC1CCN(c2ncnc3[nH]ccc23)CC1", "values": [{"measurement": "inhibition", "setting": "[1]", "result": 56.5, "unit": "%"}]}
{"smiles": "Clc1ccc(C2(c3ccc(-c4ncnc5[nH]cnc45)cc3)CCNCC2)cc1", "values": [{"measurement": "inhibition", "setting": "[2]", "result": 5, "unit": "%"}]}
{"smiles": "NC1CCN(c2ncnc3[nH]ccc23)CC1", "values": [{"measurement": "inhibition", "setting": "[3]", "result": 13.5, "unit": "%"}, {"measurement": "inhibition", "setting": "[4]", "result": 7, "unit": "%"}, {"measurement": "inhibition", "setting": "[5]", "result": 1, "unit": "%"}]}
{"smiles": "NCC1CN(c2ncnc3[nH]c4cnccc4c23)CCO1", "note": "(stereo not given)", "values": [{"measurement": "inhibition", "setting": "[6]", "result": 7.5, "unit": "%"}, {"measurement": "inhibition", "setting": "[7]", "result": 73, "unit": "%"}]}
{"smiles": "C[C@H](CN(C)C)Oc1nc(Nc2cc3cccc(Cl)c3cn2)cnc1C#N", "values": [{"measurement": "inhibition", "setting": "[8]", "result": 16.5, "unit": "%"}]}
{"smiles": "NCCc1ccc(-c2ncnc3[nH]cnc23)cc1", "values": [{"measurement": "inhibition", "setting": "[9]", "result": 28, "unit": "%"}, {"measurement": "inhibition", "setting": "[10]", "result": 64.5, "unit": "%"}, {"measurement": "inhibition", "setting": "[11]", "result": 76, "unit": "%"}]}
{"smiles": "c1cnc2[nH]ccc2c1", "values": [{"measurement": "inhibition", "setting": "[12]", "result": 57, "unit": "%"}]}
{"smiles": "c1nc(N2CCOCC2)c2nc[nH]c2n1", "values": [{"measurement": "inhibition", "setting": "[13]", "result": 63, "unit": "%"}, {"measurement": "inhibition", "setting": "[14]", "result": 78.5, "unit": "%"}, {"measurement": "inhibition", "setting": "[15]", "result": 95, "unit": "%"}]}
